Laboratory results taken from the METLIN SMRT retention time set (Domingo-Almenara et al. 2019).

Assay: gradient 5% acetonitrile 3 min, to 50% in 2 min, to 85% in 15 min, held 3 min, 100 µL/min
Conditions: column: Zorbax Extend-C18 2.1 x 50 mm; eluents: water / acetonitrile, 0.1% formic acid
How it was run: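 Over 3 months, pure standards in mixtures of ~100 molecules were run by HPLC coupled to a quadrupole time-of-flight mass spectrometer in positive and negative ionization mode. The column was a Zorbax Extend-C18 (2.1 × 50 mm, 1.8 μm) at 100 μL/min, eluted with water and acetonitrile each holding 0.1% formic acid, with 40 μL dead and 900 μL dwell volumes. Retention time was determined from adduct peaks chosen by software and checked manually.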

| SMILES | RP-LC retention time [s] |
| --- | --- |
| CN(C)C[C@@H]1CN(Cc2ccccc2)C[C@H]1NS(=O)(=O)c1cccnc1 | 537 |
| COCCCNC(=O)C1CCCN(c2nccc(C)n2)C1 (centres undefined) | 592 |
| CCOC(=O)c1c(NC(=O)CN2CCN(c3ncccn3)CC2)sc2c1CCC2 | 1080 |
| CCNC(=O)C1CCCN(C(=O)Nc2ccc(NC(=O)Nc3ccc(C)cc3C)cc2)C1 (centres undefined) | 730 |
| COc1ncc(C(=O)Nc2ccc(F)cc2F)c(C)n1 | 724 |
| COc1ccc(CC(=O)N2C[C@@H]3C[C@H](NC(=O)c4ccccc4)[C@H]2C3)cc1Cl | 794 |
| Cc1cc(C)c(S(=O)(=O)N2CCc3c(c(CN4CCCC4)nn3C)C2)c(C)c1 | 686 |
| O=C1CCCN1CCCNc1nc(C2CC2)nc2c1CCC2 | 581 |
| Cc1cc2[nH]c(C(=O)Nc3ccc(F)c(F)c3F)c(CN3CCOCC3)c2s1 | 743 |
| Cc1cc(C)cc(N2C(=O)CN(S(=O)(=O)c3ccccc3)CC2(C)C(=O)NC2CCCC2)c1 (centres undefined) | 968 |
| O=c1c2sccc2n(Cc2nc(-c3ccccc3)no2)c(=O)n1CCc1ccccc1 | 1130 |
| Cc1ccc(S(=O)(=O)N2CCC(c3nc(C(=O)N(C)C)c(C)o3)CC2)cc1C | 878 |
| CC(C)n1c(=O)sc2cc(S(=O)(=O)N3CCC(C(=O)Nc4cccc(Cl)c4)CC3)ccc21 | 1060 |
| CC(C)C(=O)NCc1csc(C2CCCN(C(=O)C3CCCC3)C2)n1 (centres undefined) | 691 |
| CC(NC(=O)c1ccc(C(F)(F)F)cc1)C(=O)Nc1nc2ccccc2[nH]1 (centres undefined) | 641 |
| O=C(Nc1nc(-c2ccccc2)cs1)c1sc2cc([N+](=O)[O-])ccc2c1Cl | 1260 |
| Cc1ccc(-c2noc(-c3cccc(S(=O)(=O)Nc4ccc(C#N)cc4)c3)n2)cc1 | 1140 |
| CCC(CC)NC(=O)C1Cn2cccc2C(=O)N1C (centres undefined) | 661 |
| CCCN1C(=O)c2c(C(=O)Nc3ccccc3Cl)ncn2CC1(C)C(=O)NC1CCCC1 (centres undefined) | 822 |
| CCn1c(C2CCN(S(=O)(=O)Cc3ccc(F)cc3Cl)C2)nc2ccncc21 (centres undefined) | 561 |
| O=C(NCc1ccc2c(c1)CCCN2C(=O)C1CCC1)c1cc(F)cc(F)c1 | 934 |

| SMILES | RP-LC retention time [s] |
| --- | --- |
| O=C(Nc1ccc(F)cc1F)N1CCc2nc[nH]c2C1 | 568 |
| COc1ccc(-c2noc(C3CC(=O)N(c4ccc(OC)c(OC)c4)C3)n2)cc1OC (centres undefined) | 743 |
| CCn1ncc(CN(C)C(=O)c2cn3ccccc3n2)c1C | 556 |
| COc1ccc2c(CCNC(=O)c3ccc(F)cc3)c[nH]c2c1 | 778 |
| CCCNC(=O)C1(CCO)CCN(c2ncccn2)C1 (centres undefined) | 560 |
| COc1ccc(CNC(=O)Cn2c(N)nc(C)cc2=O)cc1 | 603 |
| Cc1c(C(=O)N2CCOc3ccc(-c4ccc(N)nc4)cc3C2)ccc(S(C)(=O)=O)c1F | 643 |
| CCCN(CC1CCOC1)C(=O)NCCc1ccccc1 (centres undefined) | 791 |
| Cc1cccn2c(=O)cc(CN(C)Cc3ccc(Cl)cc3)nc12 | 629 |
| Cc1ccc(Nc2nc(C(=O)NCc3ccc(C)o3)nc3ccccc23)cc1 | 847 |
| Cn1ncc2c(N3CCSCC3)nc(C(=O)NCCc3cccs3)nc21 | 833 |
| COc1ccc(CNC(=O)c2ccc(CN3CCN(C(C)C)C(=O)C3=O)cc2)cc1 | 693 |
| CSc1cccc(NC(=O)Cn2c(-c3cnccn3)nc(C)c(C)c2=O)c1 | 769 |
| CCc1nc(N)n(CC(=O)Nc2cc(C)ccc2OC)c(=O)c1C | 640 |
| CCC1CN2C=NC(N3CCN(C(=O)Nc4ccc(OC)cc4)CC3)=CC2=N1 (centres undefined) | 600 |
| Cn1c(=O)c2c(ncn2CC(=O)OCc2cc(-c3cccs3)on2)n(C)c1=O | 697 |
| Cc1nc(C(=O)Nc2ccc(Cl)cc2)c(C)o1 | 901 |
| Cc1ccc(NC(=O)N2CCC(c3nc(C(=O)N(C)C)c(C)o3)CC2)cc1C | 726 |
| Cc1ccc(Nc2c(-c3ccc(C(=O)O)cc3)nc3cnccn23)cc1Cl | 790 |
| Cc1csc(-c2cc(S(=O)(=O)NCc3ccc(OC(C)C)cc3)c(C)s2)n1 | 1060 |
| CCCC(=O)Nc1cnc(N2CCNCC2)c(C(=O)N(CC(C)C)CC(C)C)c1 | 652 |

| SMILES | RP-LC retention time [s] |
| --- | --- |
| Cc1sc(-c2cc(C(F)(F)F)on2)cc1S(=O)(=O)N1CCCCCC1 | 1270 |
| COc1ccc(-c2cc3n(n2)C(NCc2cccs2)CNC3=O)cc1 (centres undefined) | 825 |
| CC(C)OCCCNC(=O)CCc1c(-c2ccc(Br)cc2)nc2ccccn12 | 652 |
| CCCNC(=O)c1c(C)sc2ccn(Cc3ccc(F)cc3)c(=O)c12 | 863 |
| CCCNC(=O)C1CCN(c2ccc(SCC(=O)Nc3ccc(S(C)(=O)=O)cc3)nn2)CC1 | 593 |
| Cc1nn(CCCC(=O)NCc2ccco2)c(=O)c2nn(-c3ccccc3)c(C)c12 | 736 |
| CC1CCC2(CC1)NC(=O)N(CC(=O)N(C)c1ccccc1)C2=O (centres undefined) | 805 |
| CN(CCc1noc(COc2ccc(F)cc2)n1)C(=O)Nc1ccccc1Cl | 962 |
| CN1CCn2ccnc2C12CCN(C(=O)Nc1ccc(Cl)cc1C(F)(F)F)CC2 | 650 |
| CCc1noc(-c2ccnc(-n3ncc(C(=O)NCC4CC4)c3C)c2)n1 | 1110 |
| CC1=C(c2ccc(C)c(C)c2)S(=O)(=O)N=C1N1CCCN(C(=O)NC2CCCC2)CC1 | 876 |
| COC[C@@H]1OCCN(S(=O)(=O)c2cccc(F)c2)[C@H]1c1ccccc1 | 928 |
| COC(=O)c1cc(Cl)c(NC(=O)C(C)C)cc1OC | 767 |
| Cc1cc(C)cc(NC(=O)CN2C(=O)C3CCCCN3c3ccc(S(=O)(=O)N(C)C)cc32)c1 (centres undefined) | 994 |
| O=C(Cc1cccs1)N(c1ccc(Br)cc1)C1C=CS(=O)(=O)C1 (centres undefined) | 833 |
| O=C(CN1CCN(C(=O)Nc2ccc(Br)cc2)CC1=O)NCc1ccco1 | 718 |
| Cc1ccc(CN2CC(Oc3ccc(-c4noc(-c5ccncc5)n4)cc3)C2)o1 | 681 |
| CCOC(=O)c1ccc(NC(=O)C2CCN(c3c(C(=O)N(CC)CC)cnc4snc(C)c34)CC2)cc1 | 967 |
| COc1cccc(C(C)NC(=O)C2CCCN(c3nccnc3Sc3ccc(C)cc3)C2)c1 (centres undefined) | 1120 |

Next, values leading:

| RP-LC retention time [s] | SMILES |
| --- | --- |
| 828 | COc1ccccc1OCC1c2ccsc2CCN1C(=O)CN(CC1CC1)C(C)=O (centres undefined) |
| 802 | CCN1C(=O)COc2ccc(-c3noc(CNC(=O)c4ccccc4)n3)cc21 |
| 791 | O=S(=O)(c1ccc(F)c(Cl)c1)N1CC(F)(F)C[C@H]1CN1CCc2ccccc2C1 |
| 722 | O=C(Cc1nnc2c(-c3nc(C4CC4)no3)cccn12)N1CCc2ccccc2C1 |
| 656 | Cc1ccccc1NC(=O)N1CCCC(Cn2c(C3CC3)nc3cccnc32)C1 (centres undefined) |
| 719 | Cc1ccc2nc(Cl)c3cc(C(=O)N4CCN(c5ccccn5)CC4)sc3c2c1 |
| 539 | COCCNC(=O)N1CCCCC1c1nncn1Cc1ccccc1 (centres undefined) |
| 682 | CCCN1C(=O)c2cccnc2Sc2cc(C(=O)N3CCOCC3)ccc21 |
| 715 | Cc1cccn2c(NC(=O)c3ccc(Br)cc3)c(-c3ccccc3)nc12 |
| 1160 | Cc1c(-c2noc(C3CCCCC3)n2)nnn1-c1ccccc1 |
| 563 | CS(=O)(=O)NCC(c1ccsc1)N1CCc2ccccc2C1 (centres undefined) |
| 733 | O=C([C@@H]1C[C@H](Oc2ccccc2)CN1C(=O)c1ccoc1)N1CCCC1 |
| 1280 | CCN1C(=O)COc2ccc(-c3noc(-c4cccc(Br)c4)n3)cc21 |
| 658 | COCc1nc2cccnc2n1C1CCN(C(=O)Nc2ccc3c(c2)OCO3)CC1 |
| 1320 | O=C(CCC1CCCC1)N1CCC(c2noc(-c3ccc(Cl)cc3)n2)CC1 |
| 848 | O=C(NCc1ccccc1)N1CCc2nc(-c3ccccc3)ncc2C1 |
| 567 | CN1CCN(C(CNC(=O)c2ccc3nsnc3c2)c2ccc(F)cc2)CC1 (centres undefined) |
| 795 | O=C(CCc1c(-c2ccc(Cl)cc2)nc2ccccn12)Nc1cccc(F)c1 |
| 845 | O=C(c1ccc(F)c(F)c1)N1CCOC(c2ccccc2)C1 (centres undefined) |
| 1310 | Cc1ccc(-c2nc(C3CCN(S(=O)(=O)c4ccc5c(c4)CCC5)CC3)no2)cc1 |
| 987 | CN(C)S(=O)(=O)c1ccc2c(c1)N(CC(=O)NCc1ccccc1)C(=O)C1CCCCN21 (centres undefined) |
| 788 | COc1ccccc1OCCC1CCN(C(=O)CCS(=O)(=O)c2ccc3c(c2)CCN3C(C)=O)C1 (centres undefined) |
| 752 | COc1ccc(CNC(=O)C2CCN(c3ncnc4c3oc3ccccc34)CC2)c(OC)c1 |
| 899 | O=S(=O)(CCc1noc(-c2ccc3c(c2)OCO3)n1)c1ccccc1 |
| 677 | Cn1c(=O)c(N2CCN(S(=O)(=O)c3cccc(Cl)c3)CC2)nc2ccncc21 |
| 800 | COc1ccccc1NC(=O)N1CCCC1c1cc(C)on1 (centres undefined) |
| 1090 | COC(=O)c1ccccc1Nc1c(-c2ccccc2)nc2cnc(Br)cn12 |
| 950 | O=S(=O)(c1ccccc1Cl)N1CCC(c2noc(COCC3CC3)n2)CC1 |
